biological target: human recombinant KAT-II (Homo sapiens (Human), UniProt Q8N5Z0); test: KAT-II inhibitory test; type: biochemical; settings: 3.0 μmol/L kynurenine, 37° C., 1 hr, pH 8.0; kynurenic acid quantified by HPLC
Procedure, shortened: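 E. coli-expressed His/MBP-tagged human KAT-II (2.0 ng/μL) incubated with 3.0 μmol/L kynurenine and 10 μmol/L pyridoxal phosphate in Tris-acetate pH 8.0, 1 hr at 37 °C. Reaction stopped with TCA. Kynurenic acid quantified by reversed-phase HPLC with fluorescence detection (ex 354/em 460 nm), duplicate at each concentration.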

Chain of human recombinant KAT-II (Q8N5Z0 30-425): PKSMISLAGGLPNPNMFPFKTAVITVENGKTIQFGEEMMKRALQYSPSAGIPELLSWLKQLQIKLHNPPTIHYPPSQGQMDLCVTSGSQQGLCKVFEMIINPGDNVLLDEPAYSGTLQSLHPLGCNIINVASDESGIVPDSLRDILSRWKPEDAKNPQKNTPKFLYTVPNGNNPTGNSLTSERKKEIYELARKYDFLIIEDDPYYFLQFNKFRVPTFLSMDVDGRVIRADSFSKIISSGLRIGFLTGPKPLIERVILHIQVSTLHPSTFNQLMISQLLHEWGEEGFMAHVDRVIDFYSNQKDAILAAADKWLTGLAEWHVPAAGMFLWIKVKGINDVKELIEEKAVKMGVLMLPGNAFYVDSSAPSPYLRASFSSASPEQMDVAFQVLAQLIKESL

In order of falling IC50:
1. CCc1nc2sc(N3CCC[C@@H]3C(=O)NCc3nnc4ccccn34)nn2c(=O)c1F [Example 686, (R)-1-(7-ethyl-6-fluoro-5-oxo-5H-[1,3,4]thiadiazolo[3,2-a]pyrimidin-2-yl)-N-[([1,2,4]triazolo[4,3-a]pyridin-3-yl)methyl]pyrrolidine-2-carboxamide]  32000 nM
2. Cn1c(C(F)(F)F)nc2ccc(N3CCC[C@@H]3C(=O)NCc3ccccc3)nc2c1=O [Example 707, (R)-N-benzyl-1-(3-methyl-4-oxo-2-trifluoromethyl-3,4-dihydropyrido[3,2-d]pyrimidin-6-yl)pyrrolidine-2-carboxamide]  680 nM
3. O=C(NCc1ccccc1)[C@H]1CCCN1c1ccc2nc(-c3ccccc3)cc(=O)n2n1 [Example 714, (R)-N-benzyl-1-(4-oxo-2-phenyl-4H-pyrimido[1,2-b]pyridazin-7-yl)pyrrolidine-2-carboxamide]  590 nM
4. CC(C)c1cc(=O)n2nc(N3CCC[C@@H]3C(=O)NCc3ccccc3)ccc2n1 [Example 720, (R)-N-benzyl-1-[4-oxo-2-(propan-2-yl)-4H-pyrimido[1,2-b]pyridazin-7-yl]pyrrolidine-2-carboxamide]  550 nM
5. CCCc1cc(=O)n2nc(N3CCC[C@@H]3C(=O)NC3(c4ccccc4)CC3)ccc2n1 [Example 718, (R)-1-(4-oxo-2-propyl-4H-pyrimido[1,2-b]pyridazin-7-yl)-N-(1-phenylcyclopropyl)pyrrolidine-2-carboxamide]  310 nM
6. CCc1cc(=O)n2nc(N3CCC[C@@H]3C(=O)NCc3ccccc3)sc2c1 [Example 699, (R)-N-benzyl-1-(7-ethyl-5-oxo-5H-[1,3,4]thiadiazolo[3,2-a]pyridin-2-yl)pyrrolidine-2-carboxamide]  230 nM
7. O=C(NCc1ccccc1)[C@H]1CCCN1c1ccc2nc(C3(Cl)CC3)[nH]c(=O)c2n1 [Example 711, (R)-N-benzyl-1-[2-(1-chlorocyclopropyl)-4-oxo-3,4-dihydropyrido[3,2-d]pyrimidin-6-yl]pyrrolidine-2-carboxamide]  190 nM
8. Cc1nc2ccc(N3CCC[C@@H]3C(=O)NCc3ccccc3)nc2c(=O)n1CC(F)(F)F [Example 706, (R)-N-benzyl-1-[2-methyl-4-oxo-3-(2,2,2-trifluoroethyl)-3,4-dihydropyrido[3,2-d]pyrimidin-6-yl]pyrrolidine-2-carboxamide]  170 nM
9. CCc1nc2ccc(N3CCC[C@@H]3C(=O)NCc3ccccc3)nc2c(=O)n1C [Example 703, (R)-N-benzyl-1-(2-ethyl-3-methyl-4-oxo-3,4-dihydropyrido[3,2-d]pyrimidin-6-yl)pyrrolidine-2-carboxamide]  110 nM
10. CC(C)c1nc2ccc(N3CCC[C@@H]3C(=O)NCc3ccccc3)nn2c(=O)c1F [Example 722, (R)-N-benzyl-1-[3-fluoro-4-oxo-2-(propan-2-yl)-4H-pyrimido[1,2-b]pyridazin-7-yl]pyrrolidine-2-carboxamide]  89 nM
11. O=C(NCc1ccccc1)[C@H]1CCCN1c1ccc2nc(-c3ccccc3F)[nH]c(=O)c2n1 [Example 713, (R)-N-benzyl-1-[2-(2-fluorophenyl)-4-oxo-3,4-dihydropyrido[3,2-d]pyrimidin-6-yl]pyrrolidine-2-carboxamide]  88 nM
12. Cc1nc2sc(N3CCC[C@@H]3C(=O)NCc3ccccc3)nn2c(=O)c1C1=CCOCC1 [Example 698, (R)-N-benzyl-1-[6-(3,6-dihydro-2H-pyran-4-yl)-7-methyl-5-oxo-5H-[1,3,4]thiadiazolo[3,2-a]pyrimidin-2-yl]pyrrolidine-2-carboxamide]  67 nM
13. CC(C)c1nc2ccc(N3CCC[C@@H]3C(=O)NCc3ccccc3)nc2c(=O)[nH]1 [Example 712, (R)-N-benzyl-1-[4-oxo-2-(propan-2-yl)-3,4-dihydropyrido[3,2-d]pyrimidin-6-yl]pyrrolidine-2-carboxamide]  62 nM
14. CCc1c(Cl)c(=O)n2nc(N3CCC[C@@H]3C(=O)NCc3ccccc3)sc2c1Cl [Example 701, (R)-N-benzyl-1-(6,8-dichloro-7-ethyl-5-oxo-5H-[1,3,4]thiadiazolo[3,2-a]pyridin-2-yl)pyrrolidine-2-carboxamide]  50 nM
15. CCc1nc2sc(N3CCC[C@@H]3C(=O)NCc3ccc(Cl)cc3Cl)nn2c(=O)c1F [Example 688, (R)-N-(2,4-dichlorobenzyl)-1-(7-ethyl-6-fluoro-5-oxo-5H-[1,3,4]thiadiazolo[3,2-a]pyrimidin-2-yl)pyrrolidine-2-carboxamide]  29 nM
16. O=C(NCc1ccccc1)[C@H]1CCCN1c1nc2c(=O)[nH]c(N3CCCCC3)nc2s1 [Example 728, (R)-N-benzyl-1-[7-oxo-5-(piperidin-1-yl)-6,7-dihydro[1,3]thiazolo[5,4-d]pyrimidin-2-yl]pyrrolidine-2-carboxamide]  24 nM
